This assay relates to C. albicans. Put plainly: minimum inhibitory concentration (MIC) assay against C. albicans. Conditions: growth inhibition of C. albicans, assay performed by Charles River Laboratories. Type of assay: cell-based, Candida albicans. The procedure: To determine the ability of the cannabinoid compounds described herein to reduce, inhibit, or eliminate, C. albicans a minimum inhibitory concentration (“MIC”) assay was performed. […] The assay was performed by Charles River Laboratories International (Wilmington, Mass.) in accordance with industry standards.

Setting [1] is: Candida albicans, read-out: MIC.

Values after ≈ are worked out from the molar mass of the structure shown. Like-named read-outs stand apart in the source and are kept apart here.

In general, MIC refers to the smallest concentration in the dilution series that meets the test's criterion for growth inhibition.

As to `CCCCCc1cc(O)c(C/C=C(\C)CCC=C(C)C)c(O)c1` [CBG, cannabigerol], the MIC was above 200 µg/mL. Under setting [1], the MIC is above 200 µg/mL. With `CCCc1cc(O)c(C/C=C(\C)CCC=C(C)C)c(O)c1` [CBGV, cannabigerivarin], the MIC came to 50 µg/mL (≈ 173 µM).

Regarding `CCCc1cc(O)c(C/C=C(\C)CCC=C(C)C)c(O)c1C(=O)O` [CBGVA, cannabigerovarinic acid], the MIC is above 200 µg/mL.

`CCCCCc1cc2c(c(O)c1C(=O)O)-c1cc(C)ccc1C(C)(C)O2` [CBNA, cannabinolic acid] had an MIC above 200 µg/mL. `CCCCc1cc(O)c(C/C=C(\C)CCC=C(C)C)c(O)c1C(=O)O` [CBGA-C4, cannabigerolic acid butyl] had an MIC above 200 µg/mL. Turning to `C=C(C)[C@@H]1CCC(C)=C[C@H]1c1c(O)cc(CCC)cc1O` [CBDV, cannabidivarin], the MIC (Candida albicans) is below 25 µg/mL.

For `CCCCCc1cc2c(c(O)c1C(=O)O)C1C3C(CCC3(C)O2)C1(C)C` (centres unmarked) [CBLA, cannabicyclolic acid], the minimum inhibitory concentration (MIC) is above 200 µg/mL. For `C=C(C)[C@@H]1CCC(C)=C[C@H]1c1c(O)cc(CCCCC)c(C(=O)O)c1O` [CBDA, cannabidiolic acid], the MIC was above 200 µg/mL. Besides, the MIC under setting [1] is above 200 µg/mL.

As for `CCCCCc1cc(O)c2c(c1)OC(C)(C)c1ccc(C)cc1-2` [CBN, cannabinol], the MIC was above 200 µg/mL. In addition, the MIC under setting [1] is above 200 µg/mL.

The compound `C=C(C)[C@@H]1CCC(C)=C[C@H]1c1c(O)cc(CCCCC)cc1O` [CBD, cannabidol] showed an MIC of 200 µg/mL (≈ 636 µM).

As to `CCCCc1cc(O)c(CC=C(C)CCC=C(C)C)c(O)c1` [CBG-C4, cannabigerol butyl], the MIC was determined as 200 µg/mL (≈ 661 µM).

(+)-cannabidiol [(+)-CBD] showed an MIC above 200 µg/mL.

The compound `CCCCCc1cc(O)c2c(c1)OC(C)(CCC=C(C)C)C=C2` (centres unmarked) [CBC, cannabichromene] came in with an MIC above 200 µg/mL. Also, the MIC under setting [1] was above 200 µg/mL.

Consider `CCCCCc1cc2c(c(O)c1C(=O)O)C=CC(C)(CCC=C(C)C)O2` (centres unmarked) [CBCA, cannabichromenic acid], for which the MIC was above 200 µg/mL. `CCCCCc1cc(O)c2c(c1)OC1(C)CCC3C1C2C3(C)C` (centres unmarked) [CBL, cannabicyclol] registered an MIC above 200 µg/mL. In addition, under setting [1], the MIC was above 200 µg/mL. Regarding `C=C(C)[C@@H]1CCC(C)=C[C@H]1c1c(O)cc(CCC)c(C(=O)O)c1O` [CBDVA, cannabidivarinic acid], the MIC is above 200 µg/mL. Regarding `CCCCCc1cc(O)c(C/C=C(\C)CCC=C(C)C)c(O)c1C(=O)O` [CBGA, cannabigerolic acid], the MIC was above 200 µg/mL. The MIC under setting [1] was above 200 µg/mL.

The record behind these values is patent US20230082130A1, “USE OF C[…] TO TREAT OR PREVENT FUNGAL GROWTH OF C. ALBICANS” (Demetrix, Inc., priority 2021, published 2023).
